Data as given in patent publication US20180048011A1, “HIGH pH ORGANIC FLOW BATTERY” (President and Fellows of Harvard College, priority 2015, published 2018).
“And” between values parts separate entries of the source, which are not always exact repeats. Identical values can stand only once.

Columns and labels:
Format in all cases: physicochemical
[1] = Three-electrode cyclic voltammetry of quinones in 1 M KOH (incl. Pourbaix diagram); conditions: for equilibrium cell potential vs. ferro/ferricyanide suggested by cyclic voltammograms: 1 M KOH, 100 mV/s, glassy carbon electrode; for equilibrium potential of couple with ferrocyanide compared with 2,6-DHAQ/ferrocyanide: CV at 100 mV/s on glassy carbon electrode
Procedure: FIG. 1. Pourbaix diagram of 2,6-DHAQ. […] FIGS. 2a-d. a. Cyclic voltammogram of 2 mM 2,6-DHAQ (left curve) and ferrocyanide (right curve) scanned at 100 mV/s; arrows indicate scan direction. Dotted line represents cyclic voltammogram of 1 M KOH background scanned at 100 mV/s. b and c. Cyclic voltammograms of 2,3,6,7-THAQ (left curve in b) and 1,5-DMAQ (left curve in c), respectively, plotted along ferrocyanide (right curve) scanned at 100 mV/s on glassy carbon electrode.
Electrochemical characterization. A glassy carbon electrode was used for three-electrode cyclic voltammetry tests, except in the electrochemical window tests where graphite foil was used to mimic the condition of porous carbon paper. Rotating-disk electrode (RDE) experiments of 2,6-DHAQ (1 mM) in 1 M KOH solution were performed using a BASi RDE-2 rotating-disk electrode system (FIG. 3a). All tests were carried out using a Gamry Reference 3000 potentiostat, with a Pt counter electrode and an Ag/AgCI reference electrode (equilibrated with 3M NaCI, 213 mV vs. standard hydrogen electrode. A Levich plot was constructed from the RDE data by plotting the mass-transport limited current vs. the square root of the rotation rate (FIG. 3b). The diffusion coefficient of 2,6-DHAQ was calculated for each of three runs from the slope of the line fit to the Levich equation (Bard, A. J. & Faulkner, L. R. Electrochemical Methods: Fundamentals and Applications. (Wiley, 2000)). The kinematic viscosity was taken to be 1.08×10^−6 m^2 s^-1 (Hitchcock, L. B. & Mcllhenny, J. S. Ind. Eng. Chem. 27, 461-466 (1935)). The resulting value of the diffusion coefficient is 4.8(2) x 10^-6 cm^2 s^-1.

[2] = Cyclic voltammogram modeling (simulated fit to measured CV)
Procedure: FIGS. 3a-3d. a. Rotating disk electrode study of the reduction of a 1 mM solution of 2,6-DHAQ in 1 M KOH on a glassy carbon electrode at various rotation rates (curves from top to bottom in legend). b. Levich plot of 1 mM 2,6-DHAQ in 1 M KOH. Data are an average of the current at -1.187 V vs. SHE for each of three runs; error bars indicate the standard deviation. c. Cyclic voltammogram of 1 mM 2,6-DHAQ in 1 M KOH (solid line). Dashed lines represent simulated cyclic voltammograms of a two-electron reduction of varying electrochemical rate constant ko and a reduction potential Eo of -0.684 V vs. SHE. The simulations assumed a ═0.5. The scan rate in all cases was 25 mV s^-1. d. Cyclic voltammogram of 1 mM 2,6-DHAQ in 1 M KOH (solid line). Dashed lines represent the simulated components of two successive one-electron reductions with reduction potentials of -0.657 V vs. SHE and -0.717 V vs. SHE, respectively, as well as the simulated total current arising from such a reaction. Each simulated reduction has a rate constant ko ═7 x 10^-3 cm 5^-1. The simulations assumed a ═0.5.
Cyclic voltammogram modeling. Computation was performed using Mathematica 10.0.1.0 according to algorithms by Oldham and Myland (Oldham, K. B. & Myland, J. C. Electrochim. Acta 56, 10612-10625 (2011)). The diffusivity of 2,6-DHAQ and both the one-electron and two-electron reduction products were assumed to be 4.8 x 10^-6 cm^2 s^-1, based on our RDE studies. The temperature was 293 K. Time was discretized into 40 ms increments, and the current at each time was computed based on the sum of previous currents as described by Oldham (Oldham, K. B. & Myland, J. C. Electrochim. Acta 56, 10612-10625 (2011)).
To model the two-electron reduction process (FIG. 1), the Butler-Volmer equation with the number of electrons n ═2 was used in place of Oldham equation (4:5), and the right-hand-side of equation (8:3) was multiplied by 2 to account for a two-electron reduction (Bard, A. J. & Faulkner, L. R. Electrochemical Methods: Fundamentals and Applications. (Wiley, 2000); Oldham, K. B. & Myland, J. C. Electrochim. Acta 56, 10612-10625 (2011)). The reduction potential was assumed to be equal to the voltage equidistant from the two peaks on the measured cyclic voltammogram (-0.684 V vs. SHE) and the charge transfer coefficient a was assumed to be 0.5. The electrochemical rate constant ko was then varied from 10^-3 cm s^-1 to 10^-5 cm s^-1.
To model the two successive one-electron reductions (FIG. 3d), Oldham equations (12:13) and (12:14) were used (Oldham, K. B. & Myland, J. C. Electrochim. Acta 56, 10612-10625 (2011)). The charge transfer coefficients al and a2 were assumed to be equal to 0.5, and the electrochemical rate constants for the two reductions were assumed equal. The values of the single rate constant and the first and second reduction potentials were permitted to vary freely. A reasonable fit to the experimental data was observed when the reduction potential of the first reduction Ei ═-0.657 V vs. SHE, the reduction potential of the second reduction E2 ═-0.717 V vs. SHE, and the two electrochemical rate constants ko,i and ko,2 both equaled 7×10^−3 cm s^-1, a value very close to that observed in other anthraquinone systems (Huskinson, B. et al. Nature 505, 195-198 (2014)).

[3] = Rotating-disk electrode study / Levich plot; conditions: 1 mM in 1 M KOH, Levich equation, three runs
Procedure: FIGS. 3a-3d. a. Rotating disk electrode study of the reduction of a 1 mM solution of 2,6-DHAQ in 1 M KOH on a glassy carbon electrode at various rotation rates (curves from top to bottom in legend). b. Levich plot of 1 mM 2,6-DHAQ in 1 M KOH. Data are an average of the current at -1.187 V vs. SHE for each of three runs; error bars indicate the standard deviation. c. Cyclic voltammogram of 1 mM 2,6-DHAQ in 1 M KOH (solid line). Dashed lines represent simulated cyclic voltammograms of a two-electron reduction of varying electrochemical rate constant ko and a reduction potential Eo of -0.684 V vs. SHE. The simulations assumed a ═0.5. The scan rate in all cases was 25 mV s^-1. d. […]
Electrochemical characterization. […] All tests were carried out using a Gamry Reference 3000 potentiostat, with a Pt counter electrode and an Ag/AgCI reference electrode (equilibrated with 3M NaCI, 213 mV vs. standard hydrogen electrode. A Levich plot was constructed from the RDE data by plotting the mass-transport limited current vs. the square root of the rotation rate (FIG. 3b). The diffusion coefficient of 2,6-DHAQ was calculated for each of three runs from the slope of the line fit to the Levich equation (Bard, A. J. & Faulkner, L. R. Electrochemical Methods: Fundamentals and Applications. (Wiley, 2000)). The kinematic viscosity was taken to be 1.08×10^−6 m^2 s^-1 (Hitchcock, L. B. & Mcllhenny, J. S. Ind. […]

[4] = Solubility measurement by UV-Vis absorbance at 413 nm; conditions: 1 M KOH solution, pH 14, aqueous buffer, thermodynamic from solid; room temperature, in 1 M KOH
Procedure: Solubility measurement. Room temperature solubility in 1 M KOH solution was measured by measuring the absorbance at 413 nm and comparing to an absorbance-vs.-concentration calibration curve determined by preparing known concentrations of 2,6-DHAQ. UV-Vis spectrophotometry measurements were performed using an Agilent Cary 60 spectrophotometer equipped with a Quantum
Northwest T2 temperature regulator. Appropriate aliquots of 2,6-DHAQ stock solution were added to 1 M KOH blank solution and their UV-Vis absorbance spectra measured. A saturated solution of 2,6-DHAQ in 1 M KOH was prepared by adding 2,6-DHAQ potassium salt into 1 M KOH solution (10 mL) until a thin layer of precipitate formed, the remaining solution was diluted by known proportions, and the absorbance of the resulting solution was compared to the calibration curve.

[5] = Chemical and electrochemical stability by proton NMR; conditions: sensitivity level of 1%; after 30 days in 5 M KOH at 100° C. and after 100 charge-discharge cycles (FIGS. 15a-c)
Procedure: FIGS. 15a-15c. Chemical and electrochemical stability of 2,6-DHAQ. ^1H NMR (500 MHz, DMSO-d6) spectra. a. 2,6-DHAQ 6: 8.04 (d, 2H, J═8.3 Hz, 2 x ArCH), 7.47 (d, 2H, J═2.5 Hz, 2 x ArCH), 7.19 (dd, 2H, J═8.3, 2.5 Hz, 2 x ArCH). b. 2,6-DHAQ, after 30 days heating in 5 M KOH solution at 100° C. c. 2,6-DHAQ, after 100 charge-discharge cycles.
The cell was cycled at a constant current density of ±0.1 A cm^-2 for 100 cycles (FIG. 14a). […] A 0.1% loss in capacity per cycle was observed during cycling, which appears to be a continuous loss of electro-active species over the 100 cycles (FIG. 14b). We explored three possible loss mechanisms: chemical decomposition, electrolyte crossover through the membrane, and leakage from the pumping system. […] This observation places an upper limit on crossover of 0.8% of the DHAQ, implying a crossover current density of <2.5 μA cm^-2 (FIGS. 16a and 16b). […] A source of leakage was readily apparent but not quantifiable at the exit of the humidified nitrogen bubbling through the negolyte to prevent energy loss by permeation of atmospheric oxygen. Coloration could also be found on the gaskets, indicating a likely site of electrolyte leakage (FIGS. 17a and 17b).

[6] = Crossover study: CV of ferro-ferricyanide posolyte after 100 charge-discharge cycles; conditions: for fraction of 2,6-DHAQ crossed over the membrane into the posolyte: Nafion membrane
Procedure: FIGS. 16a-16b. Test of electrolyte permeation through membrane. Full (a) and zoomed in (b) cyclic voltammograms of 0.4 M ferro-ferricyanide electrolyte after 100 charge-discharge cycles. Same posolyte to which was added 3.9 mM 2,6-DHAQ, and 7.6 mM 2,6-DHAQ.
Crossover study. The concentration of crossed-over 2,6-DHAQ into the ferro-ferricyanide posolyte solution was evaluated using CV. After 100 charge-discharge cycles, the ferro-ferricyanide posolyte solution (5 mL) was collected and analyzed by CV (scan at 100 mV/s. The correlation between the CV signal and 2,6-DHAQ concentration was established by titrating known amounts of 2,6-DHAQ (12 mg or […]) to the cycled posolyte followed by controlled dilution. The comparison indicates <10 mM 2,6-DHAQ had crossed over into the posolyte, which corresponds to <2% of the 2,6-DHAQ originally assembled into the negolyte.

[7] = Cyclic voltammetry of FMN and ferrocyanide; conditions: 2 mM, 100 mV/s, glassy carbon electrode
Procedure: FIG. 5. Cyclic voltammogram of 2 mM FMN (left curve) and ferrocyanide (right curve) scanned at 100 mV/s on glassy carbon electrode; arrows indicate scan direction.
Before and during the test, the electrolytes were purged with UHP nitrogen to remove and then keep out atmospheric oxygen. […] Galvanostatic cycling shown in […]

[8] = 1 mM in 1 M KOH, simulated fit, two successive one-electron reductions
[9] = after 100 charge-discharge cycles

SMILES: O=C1c2cc(O)c(O)cc2C(=O)c2cc(O)c(O)cc21 [2,3,6,7-THAQ, 2,3,6,7-tetrahydroxy-9,10-anthraquinone]
- equilibrium cell potential vs. ferro/ferricyanide suggested by cyclic voltammograms [1]: ~1.35 V
- equilibrium potential of couple with ferrocyanide compared with 2,6-DHAQ/ferrocyanide [1]: higher equilibrium potential than 2,6-DHAQ/ferrocyanide

SMILES: Cc1c(O)ccc2c1C(=O)c1ccc(O)c(C)c1C2=O [1,5-DMAQ, 1,5-dimethyl-2,6-dihydroxy-9,10-anthraquinone]
- equilibrium cell potential vs. ferro/ferricyanide suggested by cyclic voltammograms [1]: ~1.35 V
- equilibrium potential of couple with ferrocyanide compared with 2,6-DHAQ/ferrocyanide [1]: higher equilibrium potential than 2,6-DHAQ/ferrocyanide

SMILES: O=C1c2ccc(O)cc2C(=O)c2ccc(O)cc21 [2,6-DHAQ, 2,6-dihydroxy-9,10-anthraquinone]
- reduction potential E0 (voltage equidistant from the two CV peaks) ([2]; 1 mM in 1 M KOH, two-electron reduction model): -0.684 V vs. SHE
- reduction potential of the first one-electron reduction [2, 8]: -0.657 V vs. SHE
- reduction potential of the second one-electron reduction [2, 8]: -0.717 V vs. SHE
- rate constant ko of each simulated reduction ([2]; FIG. 3d legend, simulated fit): 7 x 10^-3 cm 5^-1
- separation of the potentials of the two one-electron reductions ([2]; pH 14): 0.06 V
- electrochemical rate constant k0 (both reductions) ([2]; simulated fit, charge transfer coefficient 0.5): 0.007 cm/s
- diffusion coefficient [3]: 4.8(2) x 10^-6 cm^2 s^-1
- solubility [4]: > 600 mM
- equilibrium cell potential vs. ferro/ferricyanide suggested by cyclic voltammograms [1]: 1.2 V
- decomposition by proton NMR [5]: no decomposition product
- concentration of 2,6-DHAQ crossed over into the posolyte [6, 9]: < 10000 µM
- fraction of 2,6-DHAQ crossed over the membrane into the posolyte [6, 9]: < 1% and < 2%
- fraction of 2,6-DHAQ crossed over the membrane into the posolyte ([6]; after 100 charge-discharge cycles, listed as DHAQ): ≤ 0.8%
- crossover current density ([6]; implied by crossover upper limit): < 2.5 μA cm^-2

SMILES: Cc1cc2nc3c(=O)[nH]c(=O)nc-3n(C[C@@H](O)[C@@H](O)[C@@H](O)COP(=O)(O)O)c2cc1C [FMN, riboflavin 5′ phosphate]
- overall peak separation of cyclic voltammograms vs. ferrocyanide [7]: 1 V
